Measured values taken from PubChem BioAssay (NCI).
Where “and” joins values, the source holds several entries; their conditions need not be identical. Equal values may be shown once.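 Growth conditions: 96-well plates. Treatment: test compound, 48 hours, 5 concentrations. Analysis: linear interpolation between bracketing concentrations; unreached endpoints set to highest concentration. The concentration for 50% growth inhibition is given as GI50. TGI: concentration producing complete growth inhibition.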

Tests used:
Experiment in all cases: NCI anticancer screen, dose series, 48 h
[1] = tested on: HS 578T breast
[2] = tested on: M14 melanoma
[3] = tested on: NCI-H226 lung
[4] = tested on: NCI-H23 lung
[5] = tested on: NCI/ADR-RES ovarian
[6] = tested on: OVCAR-3 ovarian
[7] = tested on: SF-295 CNS
[8] = tested on: SK-OV-3 ovarian
[9] = tested on: XF 498 CNS

In the case of `CC(=O)OCC1OC([S-])C(OC(C)=O)C(OC(C)=O)C1OC(C)=O.[Au+].c1ccc(CN2[CH-]N(Cc3ccccc3)C(c3ccccc3)=C2c2ccccc2)cc1`, the GI50 [1] is reported as 2.62 µM and 0.396 µM, the TGI [1] is reported as 8.56 µM and 7.74 µM and the GI50 [2] is reported as 2.27 µM and 0.798 µM. The TGI [2] was 5.66 µM and 3 µM, the GI50 [3] was 3.5 µM and 0.655 µM and the TGI [3] was 14.3 µM and 5.74 µM. The GI50 [4] was 1.93 µM and 0.408 µM, the TGI [4] was 4.86 µM and 3.11 µM and the GI50 [5] was 6.35 µM and 1.68 µM. The TGI [5] was 21.8 µM and 9.04 µM, the GI50 [6] was 1.8 µM and 0.444 µM and the TGI [6] was 3.25 µM and 1.28 µM. The TGI [7] was 20.3 µM and 4.59 µM and the TGI [8] was 26.3 µM and 5.17 µM.

`O=C(Nc1cccc(-n2ccc3c(NC(=O)c4ccccc4)nccc32)c1)c1ccc(Cl)c(Cl)c1` gave a GI50 [1] of 0.0822 µM, a TGI [1] of 1.31 µM and a GI50 [2] of 0.117 µM. The TGI [2] was 0.802 µM, the GI50 [3] was 0.568 µM and the TGI [3] was 3.65 µM. The GI50 [4] was 0.342 µM, the TGI [4] was 2.47 µM and the GI50 [5] was 0.0865 µM. The TGI [5] was 0.38 µM, the GI50 [6] was 0.0413 µM and the TGI [6] was 0.162 µM. For the same compound, the GI50 [7] was 0.0645 µM, the TGI [7] was 1.31 µM and the GI50 [8] was 0.0956 µM. It also gave a TGI [8] of 1.1 µM.

`CCc1cc2c(Nc3ccccc3)c3c(nc2s1)CCCC3` was tested, and the TGI [2] was greater than 100 µM, the TGI [6] was greater than 100 µM and the TGI [7] was greater than 100 µM. The TGI [8] was greater than 100 µM and the TGI [9] was 85.1 µM.

For `COc1ccc(C(=O)Nc2ccn(CCOC(=O)c3ccc(OC)cc3)c(=O)n2)cc1`, the TGI [2] was greater than 100 µM, the TGI [3] was greater than 100 µM and the TGI [6] was greater than 100 µM. For the same compound, the TGI [7] was greater than 100 µM, the TGI [8] was greater than 100 µM and the TGI [9] was greater than 100 µM.

In the case of `O=c1[nH][nH]c(=O)c2c(O)c(-c3ccccc3)ncc12`, the GI50 [1] is reported as 40.3 µM and 40.2 µM, the TGI [1] is reported as 672 µM and the GI50 [2] is reported as 32.8 µM and 63.3 µM. The TGI [2] was 385 µM, the GI50 [3] was 25.2 µM and 135 µM and the TGI [3] was 52.6 µM and 463 µM. For the same compound, the GI50 [4] was 75.9 µM and 194 µM, the TGI [4] was 827 µM and the GI50 [5] was 36.7 µM and 73.2 µM. For the same compound, the TGI [5] was 586 µM, the GI50 [6] was 27.6 µM and 84 µM and the TGI [6] was 84.2 µM and 468 µM. For the same compound, the GI50 [7] was 40.7 µM and 69.3 µM, the TGI [7] was 800 µM and the GI50 [8] was 27.8 µM and 120 µM. The TGI [8] was 93.3 µM and 488 µM.

`COC(=O)c1cc2c([nH]c3ccccc32)c(-c2nc3ccccc3cc2CO)n1` was tested, and the GI50 [1] was greater than 100 µM, the TGI [1] was greater than 100 µM and the GI50 [2] was greater than 100 µM. It also gave a TGI [2] greater than 100 µM, a GI50 [3] greater than 100 µM and a TGI [3] greater than 100 µM. For the same compound, the GI50 [4] was greater than 100 µM, the TGI [4] was greater than 100 µM and the GI50 [5] was greater than 100 µM. It also gave a TGI [5] greater than 100 µM, a GI50 [6] greater than 100 µM and a TGI [6] greater than 100 µM. For the same compound, the GI50 [7] was greater than 100 µM, the TGI [7] was greater than 100 µM and the GI50 [8] was 55.9 µM. For the same compound, the TGI [8] was greater than 100 µM.

With `COc1ccc(C2CC(c3ccc4ccccc4c3)=NN2c2nc(O)c(C3=c4cc(Cl)ccc4=NC3=O)s2)cc1` (centres undefined) the GI50 [1] was 0.0283 µM, the TGI [1] was 0.0973 µM and the GI50 [2] was 0.0354 µM and < 0.005 µM. For the same compound, the GI50 [3] was 0.0208 µM, the TGI [3] was 0.052 µM and the GI50 [4] was 0.0226 µM and < 0.005 µM. For the same compound, the GI50 [5] was 0.0923 µM, the TGI [5] was 50 µM and the GI50 [6] was 0.0202 µM and < 0.005 µM. For the same compound, the TGI [6] was 0.0396 µM and < 0.005 µM, the GI50 [7] was 0.0197 µM and < 0.005 µM and the TGI [7] was 0.0491 µM and < 0.005 µM. For the same compound, the GI50 [8] was 0.0217 µM and < 0.005 µM.

Compound `CN(CCCCCCCCNc1ccnc2ccccc12)Cc1ccc(-c2ccc(-c3ccc(C#N)cc3)s2)cc1` has a GI50 [1] of 1.75 µM, a TGI [1] of 3.86 µM and a GI50 [2] of 0.443 µM. It also gave a TGI [2] of 1.56 µM, a GI50 [3] of 1.17 µM and a TGI [3] of 3.17 µM. For the same compound, the GI50 [4] was 0.84 µM, the TGI [4] was 2.42 µM and the GI50 [5] was 1.2 µM. For the same compound, the TGI [5] was 3.23 µM, the GI50 [6] was 0.647 µM and the TGI [6] was 2.07 µM. It also gave a GI50 [7] of 0.501 µM, a TGI [7] of 1.26 µM and a GI50 [8] of 1.65 µM. It also gave a TGI [8] of 3.27 µM.

`Cc1cc(C(=O)CC(Cl)=C(Cl)Cl)c(Cl)cc1Cl` showed a GI50 [1] of 30.3 µM, a TGI [1] of 78.4 µM and a GI50 [2] of 31.7 µM. It also gave a TGI [2] of 78.2 µM, a GI50 [3] of 23.9 µM and a TGI [3] of 76.3 µM. The GI50 [4] was 18.6 µM, the TGI [4] was 37.9 µM and the GI50 [5] was 33.5 µM. The TGI [5] was greater than 100 µM, the GI50 [6] was 21.4 µM and the TGI [6] was 54.1 µM. The GI50 [7] was 19.9 µM, the TGI [7] was 54.8 µM and the GI50 [8] was 49.8 µM. The TGI [8] was greater than 100 µM.

Work on `COc1ccc2[nH]cc(C3(c4c[nH]c5ccc(OC)cc45)C(=O)Nc4ccc(Cl)cc43)c2c1` yielded a GI50 [1] of 5.38 µM, a TGI [1] greater than 100 µM and a GI50 [2] of 4.06 µM. It also gave a TGI [2] greater than 100 µM, a GI50 [3] of 3.38 µM and a TGI [3] of 30 µM. For the same compound, the GI50 [4] was 3.03 µM, the TGI [4] was 23.2 µM and the GI50 [5] was 9.98 µM. For the same compound, the TGI [5] was greater than 100 µM, the GI50 [6] was 2.99 µM and the TGI [6] was 8.5 µM. For the same compound, the GI50 [7] was 2.1 µM, the TGI [7] was 6.26 µM and the GI50 [8] was 5.42 µM. The TGI [8] was 23.4 µM.

`O=C1c2c(c3c4ccccc4n(CCCCCCN4CCOCC4)c3c3[nH]c4ccccc4c23)C(=O)N1O` was tested, and the GI50 [1] was 2.07 µM, the TGI [1] was 6.61 µM and the GI50 [2] was 4.02 µM. The TGI [2] was 30.7 µM, the GI50 [3] was greater than 32.5 µM and the TGI [3] was greater than 80.4 µM. It also gave a GI50 [4] of 15.8 µM, a TGI [4] of 45.9 µM and a GI50 [5] greater than 69.8 µM. For the same compound, the TGI [5] was greater than 100 µM, the GI50 [6] was 16.3 µM and the TGI [6] was 33.8 µM. It also gave a GI50 [7] of 16.8 µM, a TGI [7] of 35.7 µM and a GI50 [8] of 20.6 µM. It also gave a TGI [8] of 43.2 µM.

For `CSc1nc(SC)c2c(C)c(Br)[nH]c2n1`, the TGI [1] was greater than 100 µM, the TGI [2] was greater than 100 µM and the TGI [3] was greater than 100 µM. It also gave a TGI [4] greater than 100 µM, a TGI [5] greater than 100 µM and a TGI [6] greater than 100 µM. It also gave a TGI [7] greater than 100 µM and a TGI [8] greater than 100 µM.

Work on `CCc1nc(N)nc(N)c1-c1ccc(N(C)Cc2ccccc2)c([N+](=O)[O-])c1` yielded a TGI [1] of 72.7 µM, a TGI [2] of 11.3 µM and a TGI [3] of 23.2 µM. The TGI [4] was 24.4 µM, the TGI [5] was 21.4 µM and the TGI [6] was 22.6 µM. For the same compound, the TGI [7] was 15.3 µM and the TGI [8] was 33.6 µM.

`Cc1c(C(=O)/C=C/c2ccc(Cl)cc2)nnn1-c1ccnc2c(C(F)(F)F)cccc12` showed a GI50 [1] of 64.3 µM, a TGI [1] greater than 100 µM and a GI50 [2] greater than 100 µM. For the same compound, the TGI [2] was greater than 100 µM, the GI50 [3] was 22.6 µM and the TGI [3] was greater than 100 µM. It also gave a GI50 [4] of 35.8 µM, a TGI [4] greater than 100 µM and a GI50 [5] of 48.4 µM. For the same compound, the TGI [5] was greater than 100 µM, the GI50 [6] was 36.6 µM and the TGI [6] was greater than 100 µM. The GI50 [7] was 26.9 µM, the TGI [7] was greater than 100 µM and the GI50 [8] was 42.1 µM. The TGI [8] was 92.9 µM.

With `CN(C)c1ccc(/C=N/n2c(CCCCc3n[nH]c(=S)n3/N=C/c3ccc(N(C)C)cc3)n[nH]c2=S)cc1` the GI50 [1] was 73.8 µM, the TGI [1] was greater than 100 µM and the GI50 [2] was greater than 100 µM. The TGI [2] was greater than 100 µM, the GI50 [3] was greater than 100 µM and the TGI [3] was greater than 100 µM. For the same compound, the GI50 [4] was greater than 100 µM, the TGI [4] was greater than 100 µM and the GI50 [5] was greater than 100 µM. For the same compound, the TGI [5] was greater than 100 µM, the GI50 [6] was greater than 100 µM and the TGI [6] was greater than 100 µM. For the same compound, the GI50 [7] was greater than 100 µM, the TGI [7] was greater than 100 µM and the GI50 [8] was greater than 100 µM. The TGI [8] was greater than 100 µM.

`CN(C)c1ccc2cc3c(cc2c1)Oc1ccccc1N3.[Cl][Zn][Cl]` showed a GI50 [1] of 24.7 µM, a TGI [1] greater than 100 µM and a GI50 [2] of 4.73 µM. The TGI [2] was 18 µM, the GI50 [3] was 1.73 µM and the TGI [3] was 4.07 µM. It also gave a GI50 [4] of 4.74 µM, a TGI [4] of 21.7 µM and a GI50 [5] of 16.8 µM. For the same compound, the TGI [5] was 83.3 µM, the GI50 [6] was 1.5 µM and the TGI [6] was 3 µM. The GI50 [7] was 18 µM, the TGI [7] was 39.7 µM and the GI50 [8] was 17 µM. The TGI [8] was 33.3 µM.
